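The compound was tested at five concentrations on cells cultured in 96-well plates, with a 48-hour exposure period. GI50 = concentration required for 50% inhibition of growth.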 The source made the active and inactive calls. No stated cut-off is given here; in the data, active = GI50 up to about 1.1 µM and inactive = higher.
Experiments:
Assay in all cases: NCI-60 cell line screen, 48 h
ACHN = system: ACHN
HOP-62 = system: HOP-62
K562 = system: K562
LOX IMVI = system: LOX IMVI
M14 = system: M14
Malme-3M = system: Malme-3M
NCI-H23 = system: NCI-H23
OVCAR-3 = system: OVCAR-3
RXF 393 = system: RXF 393
SF-295 = system: SF-295
SF-539 = system: SF-539
SK-MEL-2 = system: SK-MEL-2
SK-OV-3 = system: SK-OV-3
SN12C = system: SN12C
SNB-19 = system: SNB-19
SW-620 = system: SW-620
TK-10 = system: TK-10
UACC-257 = system: UACC-257
SK-MEL-28 = system: SK-MEL-28
HL-60 = system: HL-60

Measured: GI50

C#CC(O)Cc1ccc(OC)c2occc12 (configuration not stated)
inactive: ACHN > 100 µM | HOP-62 > 100 µM | K562 > 100 µM | LOX IMVI > 100 µM | M14 > 100 µM | Malme-3M > 100 µM | NCI-H23 > 100 µM | OVCAR-3 > 100 µM | RXF 393 > 100 µM | SF-295 > 100 µM | SF-539 > 100 µM | SK-MEL-2 > 100 µM | SK-OV-3 > 100 µM | SN12C > 100 µM | SNB-19 > 100 µM | SW-620 > 100 µM | TK-10 > 100 µM | UACC-257 > 100 µM

Nc1nc(O)c2ncn([C@H]3CC[C@@H](CO)O3)c2n1
inactive: HOP-62 > 100 µM | K562 > 100 µM | LOX IMVI > 100 µM | M14 > 100 µM | Malme-3M > 100 µM | NCI-H23 > 100 µM | OVCAR-3 > 100 µM | RXF 393 > 100 µM | SF-295 > 100 µM | SK-MEL-28 > 100 µM | SK-MEL-2 > 100 µM | SK-OV-3 > 100 µM | SN12C > 100 µM | SNB-19 > 100 µM | SW-620 > 100 µM | TK-10 > 100 µM | UACC-257 > 100 µM

COc1ccc(C=O)c(NC(=O)C(C)C)c1
inactive: ACHN 29.8 µM | K562 31 µM | LOX IMVI 31.7 µM | M14 37.6 µM | Malme-3M 27.4 µM | NCI-H23 26 µM | OVCAR-3 30.5 µM | RXF 393 12.3 µM | SF-295 32.7 µM | SF-539 40.4 µM | SK-MEL-28 69.2 µM | SK-MEL-2 37.6 µM | SK-OV-3 > 100 µM | SN12C 23 µM | SNB-19 72.1 µM | SW-620 > 10 µM | TK-10 85.7 µM | UACC-257 27.2 µM

CCCNC(=O)c1cc(NC(=O)c2cc(NC(=O)CCS(=O)(=O)OC)cn2C)cn1C
inactive: ACHN 52.4 µM | HOP-62 25.8 µM | K562 5.2 µM | LOX IMVI 14.6 µM | M14 28.6 µM | Malme-3M 8.41 µM | NCI-H23 17.4 µM | OVCAR-3 10.4 µM | RXF 393 14.4 µM | SF-295 > 69.8 µM | SK-MEL-28 33.3 µM | SK-MEL-2 18.3 µM | SK-OV-3 9.55 µM | SN12C 13.8 µM | SNB-19 2.21 µM | SW-620 6.27 µM | TK-10 67.5 µM | UACC-257 24 µM

COc1ccc(/C=C2/SC(c3ccc(Cl)cc3)N(NC(=O)CCCCCCCCC(=O)NN3C(=O)/C(=C\c4ccc(OC)c(OC)c4)SC3c3ccc(Cl)cc3)C2=O)cc1OC (configuration not stated)
inactive: ACHN 65.2 µM | HOP-62 25.8 µM | K562 78.3 µM | M14 44.1 µM | NCI-H23 20.4 µM | OVCAR-3 60 µM | RXF 393 28 µM | SF-295 21.4 µM | SF-539 29.2 µM | SK-MEL-28 83 µM | SK-MEL-2 78 µM | SK-OV-3 31.4 µM | SN12C > 100 µM | SNB-19 50.2 µM | SW-620 > 100 µM | TK-10 75.2 µM | UACC-257 54.3 µM

CC1(C)[C@@H](Cn2cnc3c(O)nc(N)nc32)CC[C@@]1(C)CO
inactive: ACHN > 100 µM | HOP-62 > 100 µM | K562 > 100 µM | LOX IMVI > 100 µM | M14 > 100 µM | OVCAR-3 > 100 µM | RXF 393 > 100 µM | SF-295 > 100 µM | SF-539 > 100 µM | SK-MEL-28 > 100 µM | SK-MEL-2 > 100 µM | SK-OV-3 > 100 µM | SN12C > 100 µM | SNB-19 > 100 µM | SW-620 > 100 µM | TK-10 > 100 µM | UACC-257 > 100 µM

COc1cc(Cc2cc(OC)c(OC)c(OC)c2)ccc1O
inactive: ACHN 40.9 µM | HL-60 2.27 µM | HOP-62 26.8 µM | K562 3.61 µM | LOX IMVI 8.57 µM | M14 5 µM | Malme-3M 2.41 µM | NCI-H23 11.2 µM | OVCAR-3 9.23 µM | SF-295 4.57 µM | SF-539 9.31 µM | SK-MEL-28 39.7 µM | SK-MEL-2 3.11 µM | SK-OV-3 39.4 µM | SN12C 21.8 µM | SNB-19 23.9 µM | SW-620 3.56 µM | TK-10 88.5 µM | UACC-257 22.4 µM

COc1ccc(-c2cc(O)c3cc(OC)c(OC)cc3n2)cc1OC
inactive: ACHN > 100 µM | HOP-62 37.7 µM | K562 > 100 µM | LOX IMVI > 100 µM | M14 > 100 µM | Malme-3M > 100 µM | NCI-H23 > 100 µM | OVCAR-3 > 100 µM | RXF 393 67.3 µM | SF-295 > 100 µM | SF-539 > 100 µM | SK-MEL-28 > 100 µM | SK-OV-3 > 100 µM | SN12C > 100 µM | SNB-19 > 100 µM | SW-620 > 100 µM | TK-10 > 100 µM | UACC-257 > 100 µM

Source: ChEMBL document CHEMBL1201862, “PubChem BioAssay data set” (2004)
